Data as given in ChEMBL document CHEMBL3045855, “ANTIPYRETIC, ANTINOCICEPTIVE AND ANTI-INFLAMMATORY ACTIVITIES OF CERTAIN -OXOBUTANOIC ACID DERIVATIVES” (2005).

Experiments:
Assay type in all cases: functional
Mus musculus [1] = assay: Antinociceptive activity in Mus musculus Swiss (mouse) assessed as protection against acetic acid-induced writhing at 50 mg/kg, po administered 1 hr prior challenge measured for 20 min following acetic acid treatment relative to control
Rattus norvegicus [2] = assay: Antipyretic activity in yeast-fevered Rattus norvegicus Sprague-Dawley (rat) assessed as reduction in rectal temperature at 50 mg/kg, po administered 17 hr post challenge measured after 120 min; set-up: scale not given: the % may be the effect or the level left
Rattus norvegicus [3] = assay: Antipyretic activity in yeast-fevered Rattus norvegicus Sprague-Dawley (rat) assessed as reduction in rectal temperature at 50 mg/kg, po administered 17 hr post challenge measured after 90 min; set-up: scale not given: the % may be the effect or the level left
Rattus norvegicus [4] = assay: Antipyretic activity in yeast-fevered Rattus norvegicus Sprague-Dawley (rat) assessed as reduction in rectal temperature at 50 mg/kg, po administered 17 hr post challenge measured after 60 min; set-up: scale not given: the % may be the effect or the level left
Rattus norvegicus [5] = assay: Antipyretic activity in yeast-fevered Rattus norvegicus Sprague-Dawley (rat) assessed as reduction in rectal temperature at 50 mg/kg, po administered 17 hr post challenge measured after 30 min; set-up: scale not given: the % may be the effect or the level left
Rattus norvegicus [6] = assay: Anti-inflammatory in Rattus norvegicus Sprague-Dawley (rat) subcutaneously implanted with cotton pellets assessed as inhibition of granuloma growth at 50 mg/kg, po measured after 7 days; details: 168 h
Rattus norvegicus [7] = assay: Anti-inflammatory activity in Rattus norvegicus Sprague-Dawley (rat) assessed as inhibition of carrageenan-induced paw edema at 100 mg/kg, po for 7 days challenged with carrageenan 1 hr post last dose on day 7 measured after 2 hr after challenge
Rattus norvegicus [8] = assay: Anti-inflammatory activity in Rattus norvegicus Sprague-Dawley (rat) assessed as inhibition of carrageenan-induced paw edema at 50 mg/kg, po for 7 days challenged with carrageenan 1 hr post last dose on day 7 measured after 2 hr after challenge
Rattus norvegicus [9] = assay: Antipyretic activity in yeast-fevered Rattus norvegicus Sprague-Dawley (rat) assessed as reduction in rectal temperature at 100 mg/kg, po administered 17 hr post challenge measured after 120 min; set-up: scale not given: the % may be the effect or the level left
Rattus norvegicus [10] = assay: Antipyretic activity in yeast-fevered Rattus norvegicus Sprague-Dawley (rat) assessed as reduction in rectal temperature at 100 mg/kg, po administered 17 hr post challenge measured after 90 min; set-up: scale not given: the % may be the effect or the level left
Rattus norvegicus [11] = assay: Antipyretic activity in yeast-fevered Rattus norvegicus Sprague-Dawley (rat) assessed as reduction in rectal temperature at 100 mg/kg, po administered 17 hr post challenge measured after 60 min; set-up: scale not given: the % may be the effect or the level left
Rattus norvegicus [12] = assay: Antipyretic activity in yeast-fevered Rattus norvegicus Sprague-Dawley (rat) assessed as reduction in rectal temperature at 100 mg/kg, po administered 17 hr post challenge measured after 30 min; set-up: scale not given: the % may be the effect or the level left
Mus musculus [13] = assay: Antinociceptive activity in Mus musculus Swiss (mouse) assessed as protection against acetic acid-induced writhing at 25 mg/kg, po administered 1 hr prior challenge measured for 20 min following acetic acid treatment relative to control
Rattus norvegicus [14] = assay: Anti-inflammatory in Rattus norvegicus Sprague-Dawley (rat) subcutaneously implanted with cotton pellets assessed as inhibition of granuloma growth at 25 mg/kg, po measured after 7 days; details: 168 h
Rattus norvegicus [15] = assay: Anti-inflammatory activity in Rattus norvegicus Sprague-Dawley (rat) assessed as inhibition of carrageenan-induced paw edema at 25 mg/kg, po for 7 days challenged with carrageenan 1 hr post last dose on day 7 measured after 2 hr after challenge

SMILES | Activity (Mus musculus [1]) | Activity (Rattus norvegicus [2]) | Activity (Rattus norvegicus [3]) | Activity (Rattus norvegicus [4]) | Activity (Rattus norvegicus [5]) | inhibition in vivo at 50 mg/kg (Rattus norvegicus [6]) | inhibition in vivo at 100 mg/kg (Rattus norvegicus [7]) | inhibition in vivo at 50 mg/kg (Rattus norvegicus [8]) | Activity (Rattus norvegicus [9]) | Activity (Rattus norvegicus [10]) | Activity (Rattus norvegicus [11]) | Activity (Rattus norvegicus [12]) | Activity (Mus musculus [13]) | inhibition in vivo at 25 mg/kg (Rattus norvegicus [14]) | inhibition in vivo at 25 mg/kg (Rattus norvegicus [15])
CC(=O)c1cc(C(=O)CCC(=O)O)ccc1O | 61.47% | 2.52% | 2.63% | 1.8% | 1.58% | 5.2% | 22.4% | 4.11% | – | – | – | – | – | – | –
NC(=O)c1cc(C(=O)CCC(=O)O)ccc1O | 59.24% | 2.44% | 2.71% | 2.11% | 0.86% | 34.4% | 27.5% | 13.6% | – | – | – | – | – | – | –
CC(=O)Nc1ccc(O)cc1 [ACETAMINOPHEN] | – | – | – | – | – | – | – | – | 6.06% | 5.47% | 5.14% | 4.18% | – | – | –
O=C([O-])Cc1ccccc1Nc1c(Cl)cccc1Cl.[Na+] [DICLOFENAC SODIUM] | – | – | – | – | – | – | – | – | – | – | – | – | 72.58% | 45.4% | 47.6%
O=C(O)CCC(=O)/C=C/c1ccc2c(c1)OCO2 | 69.65% | 2.49% | 3.41% | 4.08% | 0.99% | 53.3% | 68.8% | 57.5% | – | – | – | – | – | – | –
